Here are results for 28 compounds from US7998989B2, “2-Imino-1,3-thiazoline-based compounds and T-type calcium channel inhibitors containing the same” (Korea Institute of Science and Technology, priority 2007, dated 2011).

As usually defined, the melting point is the temperature, or range, at which the solid turns liquid.

Series [1] addresses T1, α1G T-type calcium channel (Homo sapiens, UniProt O43497).
T1 construct: host or cells: HEK293
Nature of the series: Assay for % inhibiting activity against T-type calcium channel using FDSS6000 (fluo-3 calcium imaging, KCl activation). The format is cell-based. Put shortly:
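Percent inhibition derived from […] area against untreated control (100%), after 75 s compound pre-exposure and 75 mM KCl activation. Cells: HEK293 with stable α1G plus Kir2.1, fluo-3/AM-labelled (5 μM), assayed in pH 7.4 HEPES containing 10 mM CaCl2.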

Setting [2] is: HEK293, 10 μM, HEK293 cells stably expressing α1G T-type calcium channel and Kir2.1, compounds of the examples, read-out: FDSS (% inhibition)/10uM.

Each structure is given as a SMILES string. Read-outs that look alike come from different tables or passages of the source.

T1 sequence (O43497 whole entry): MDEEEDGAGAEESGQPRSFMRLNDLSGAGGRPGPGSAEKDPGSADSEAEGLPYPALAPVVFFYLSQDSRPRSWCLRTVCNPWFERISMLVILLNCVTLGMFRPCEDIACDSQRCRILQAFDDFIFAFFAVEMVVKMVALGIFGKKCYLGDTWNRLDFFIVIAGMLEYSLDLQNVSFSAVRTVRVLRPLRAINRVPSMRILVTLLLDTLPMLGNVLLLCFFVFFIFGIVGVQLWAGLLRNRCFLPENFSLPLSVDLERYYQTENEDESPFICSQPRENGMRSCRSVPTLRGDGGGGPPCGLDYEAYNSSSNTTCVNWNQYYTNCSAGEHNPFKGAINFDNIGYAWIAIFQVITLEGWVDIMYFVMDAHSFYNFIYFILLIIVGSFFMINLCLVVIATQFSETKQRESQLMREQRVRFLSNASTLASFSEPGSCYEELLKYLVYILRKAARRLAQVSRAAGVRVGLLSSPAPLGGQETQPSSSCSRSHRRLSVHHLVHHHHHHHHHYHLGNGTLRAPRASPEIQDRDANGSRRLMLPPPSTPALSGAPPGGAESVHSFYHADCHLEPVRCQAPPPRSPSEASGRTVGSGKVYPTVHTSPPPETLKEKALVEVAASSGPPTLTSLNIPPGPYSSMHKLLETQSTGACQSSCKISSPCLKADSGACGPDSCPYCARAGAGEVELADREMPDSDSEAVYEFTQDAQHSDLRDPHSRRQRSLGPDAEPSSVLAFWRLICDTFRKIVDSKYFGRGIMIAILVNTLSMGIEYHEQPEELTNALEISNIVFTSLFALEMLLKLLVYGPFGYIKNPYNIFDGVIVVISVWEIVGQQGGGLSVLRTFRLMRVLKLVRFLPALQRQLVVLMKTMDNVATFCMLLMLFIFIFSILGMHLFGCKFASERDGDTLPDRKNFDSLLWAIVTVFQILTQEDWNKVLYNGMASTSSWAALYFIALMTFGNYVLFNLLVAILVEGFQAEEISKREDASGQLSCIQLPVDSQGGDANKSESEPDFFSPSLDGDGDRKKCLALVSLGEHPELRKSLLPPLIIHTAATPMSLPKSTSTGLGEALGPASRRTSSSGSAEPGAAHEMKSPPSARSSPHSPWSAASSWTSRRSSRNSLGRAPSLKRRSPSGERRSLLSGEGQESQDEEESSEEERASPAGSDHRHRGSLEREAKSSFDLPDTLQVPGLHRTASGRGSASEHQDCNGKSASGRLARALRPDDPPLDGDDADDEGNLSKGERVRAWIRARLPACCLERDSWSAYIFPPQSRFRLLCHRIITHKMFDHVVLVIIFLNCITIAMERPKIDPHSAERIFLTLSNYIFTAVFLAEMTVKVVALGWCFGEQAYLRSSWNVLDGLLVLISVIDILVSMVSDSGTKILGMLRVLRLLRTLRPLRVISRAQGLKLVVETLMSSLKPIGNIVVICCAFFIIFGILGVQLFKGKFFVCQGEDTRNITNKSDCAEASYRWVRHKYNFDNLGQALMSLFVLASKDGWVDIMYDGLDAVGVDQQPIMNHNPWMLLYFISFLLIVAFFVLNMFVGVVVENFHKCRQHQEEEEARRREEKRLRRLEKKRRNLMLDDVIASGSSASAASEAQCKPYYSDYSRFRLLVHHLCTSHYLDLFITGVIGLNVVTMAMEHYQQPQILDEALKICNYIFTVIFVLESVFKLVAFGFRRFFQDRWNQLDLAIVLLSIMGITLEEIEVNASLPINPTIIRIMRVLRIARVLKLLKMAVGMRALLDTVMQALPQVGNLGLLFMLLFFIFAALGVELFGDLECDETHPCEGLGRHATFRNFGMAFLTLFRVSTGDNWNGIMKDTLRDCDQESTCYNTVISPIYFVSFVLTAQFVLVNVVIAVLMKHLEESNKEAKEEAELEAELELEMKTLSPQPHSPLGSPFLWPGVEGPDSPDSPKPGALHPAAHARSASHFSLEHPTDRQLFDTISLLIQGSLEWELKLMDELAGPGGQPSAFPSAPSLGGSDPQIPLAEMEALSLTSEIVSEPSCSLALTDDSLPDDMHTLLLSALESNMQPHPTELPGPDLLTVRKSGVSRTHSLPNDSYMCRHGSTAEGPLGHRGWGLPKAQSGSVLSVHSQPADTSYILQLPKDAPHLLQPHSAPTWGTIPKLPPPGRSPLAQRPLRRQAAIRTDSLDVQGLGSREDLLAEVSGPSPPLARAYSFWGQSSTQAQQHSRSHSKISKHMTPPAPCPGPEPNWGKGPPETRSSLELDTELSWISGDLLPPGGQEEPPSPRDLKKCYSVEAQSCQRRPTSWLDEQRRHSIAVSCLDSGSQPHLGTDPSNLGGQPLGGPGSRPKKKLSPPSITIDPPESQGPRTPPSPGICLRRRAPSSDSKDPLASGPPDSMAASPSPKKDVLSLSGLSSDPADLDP

Regarding `CC(C)N1C(=NC23CC4CC(CC(C4)C2)C3)SCC1CC(=O)Nc1ccc(Cl)cc1.Cl` (centres unmarked) [KHG24823, [2-(1-adamantylimino)-3-isopropyl-1,3-thiazolidine-4-yl]-N-(4-chlorophenyl)-acetamide hydrochloride], the melting point came out at 236 °C. For the same compound, the inhibition at 10 µM in series [1] (setting [2]) came to 54.1%.
The matching figures for `CCCCN1C(=NC23CC4CC(CC(C4)C2)C3)SCC1CC(=O)Nc1ccc(Br)cc1.Cl` (centres unmarked) [KHG24784, [2-(1-adamantylimino)-3-(n-butyl)-1,3-thiazolidine-4-yl]-N-(4-bromophenyl)-acetamide hydrochloride]: 172 °C and 36.6%.
Turning to `CCCN1C(=NC2CCCCC2)SCC1CC(=O)Nc1ccc(C)c(Cl)c1.Cl` (centres unmarked) [KHG24405, (2-cyclohexylimino-3-(n-propyl)-1,3-thiazolidine-4-yl)-N-(3-chloro-4-methylphenyl)-acetamide hydrochloride], the melting point came out at 204.9 °C. For the same compound, the inhibition at 10 µM in series [1] (setting [2]) worked out at 68.4%.
`CC(C)c1ccc(NC(=O)CC2CSC(=NC3CCCCC3)N2Cc2ccccc2)cc1.Cl` (centres unmarked) [KHG24303, (2-cyclohexylimino-3-benzyl-1,3-thiazolidine-4-yl)-N-(4-isopropylphenyl)-acetamide hydrochloride] had a melting point of 202.9 °C. Besides, in series [1] (setting [2]), the inhibition at 10 µM worked out at 31.1%.
The matching figures for `CCCN1C(=NC23CC4CC(CC(C4)C2)C3)SCC1CC(=O)Nc1ccc(C(F)(F)F)cc1.Cl` (centres unmarked) [KHG24809, [2-(1-adamantylimino)-3-n-propyl-1,3-thiazolidine-4-yl]-N-(4-trifluoromethylphenyl)-acetamide hydrochloride]: 221 °C and 57.3%.
The matching figures for `CCN1C(=NC2CCCCC2)SCC1CC(=O)Nc1ccc(C)cc1Cl.Cl` (centres unmarked) [KHG24420, (2-cyclohexylimino-3-ethyl-1,3-thiazolidine-4-yl)-N-(2-chloro-4-methylphenyl)-acetamide hydrochloride]: 115 °C and 58.5%.
`CC1SC(=NC2CCCCC2)N(C)C1CC(=O)Nc1ccc(OC(F)(F)F)cc1.Cl` (centres unmarked) [KHG24524, (2-cyclohexylimino-3,5-dimethyl-1,3-thiazolidine-4-yl)-N-(4-trifluoromethoxyphenyl)-acetamide hydrochloride]: the melting point is 178 to 180 °C. For the same compound, in series [1] (setting [2]), the inhibition at 10 µM was 41.3%.
The matching figures for `Cl.O=C(CC1CSC(=NC2CCCCC2)N1C1CC1)Nc1ccc(C(F)(F)F)cc1` (centres unmarked) [KHG24268, [2-cyclohexylimino-3-cyclopropyl-1,3-thiazolidine-4-yl]-N-(4-trifluoromethylphenyl)-acetamide hydrochloride]: 240.8 °C and 58.7%.
The matching figures for `CCCN1C(=NC23CC4CC(CC(C4)C2)C3)SCC1CC(=O)Nc1cc([N+](=O)[O-])ccc1F.Cl` (centres unmarked) [KHG24839, [2-(1-adamantylimino)-3-n-propyl-1,3-thiazolidine-4-yl]-N-(2-fluoro-5-nitrophenyl)-acetamide hydrochloride]: 145 °C and 59.7%.
The compound `CN1C(=NC2CCCCCC2)SCC1C(=O)Nc1ccc(Br)cc1` (centres unmarked) [KHG24633, (2-cycloheptylimino-3-methyl-1,3-thiazolidine-4-yl)-N-(4-bromophenyl)-carboxamide] showed a melting point of 109.2 °C. The inhibition at 10 µM in series [1] (setting [2]) amounted to 40.4%.
Take `CN1C(=NC2CCCCC2)SCC1CC(=O)Nc1ccc(Cl)c(Cl)c1.Cl` (centres unmarked) [KHG24531, (2-cyclohexylimino-3-methyl-1,3-thiazolidine-4-yl)-N-(3,4-dichlorophenyl)-acetamide hydrochloride]: the melting point amounted to 223 °C. Further, the inhibition at 10 µM in series [1] (setting [2]) was 48.4%.
With `CC(C)N1C(=NC23CC4CC(CC(C4)C2)C3)SCC1CC(=O)Nc1cc(C(F)(F)F)cc(C(F)(F)F)c1.Cl` (centres unmarked) [KHG24828, [2-(1-adamantylimino)-3-isopropyl-1,3-thiazolidine-4-yl]-N-(3,5-ditrifluoromethylphenyl)-acetamide hydrochloride], the melting point amounted to 233 °C. Besides, in series [1] (setting [2]), the inhibition at 10 µM worked out at 35.4%.
On the same counts, the results for `CN1C(=NC2CCCCCC2)SCC1C(=O)Nc1ccccc1Br.Cl` (centres unmarked) [KHG24634, (2-cycloheptylimino-3-methyl-1,3-thiazolidine-4-yl)-N-(2-bromophenyl)-carboxamide hydrochloride] are 232.8 °C and 46.9%.
`CC(C)N1C(=NC23CC4CC(CC(C4)C2)C3)SCC1CC(=O)Nc1ccc(Cl)cc1F.Cl` (centres unmarked) [KHG24834, [2-(1-adamantylimino)-3-isopropyl-1,3-thiazolidine-4-yl]-N-(4-chloro-2-fluorophenyl)-acetamide hydrochloride] showed a melting point of 228 °C. In addition, the inhibition at 10 µM in series [1] (setting [2]) was determined as 65.7%.
`CCCCc1ccc(N=C2SCC(CC(=O)Nc3ccc(Cl)cc3F)N2C)cc1.Cl` (centres unmarked) [KHG23066, [2-(4-n-butylphenylimino)-3-methyl-1,3-thiazolidine-4-yl]-N-(4-chloro-2-fluorophenyl)-acetamide hydrochloride] showed a melting point of 223 to 224 °C. In series [1] (10 μM, FDSS (% inhibition), comparative compounds where R6 is a phenyl group, read-out: FDSS), the inhibition at 10 µM came out at 1.3%.
For the compound `CC1SC(=NC2CCCCCC2)N(C)C1CC(=O)Nc1ccc(OC(F)(F)F)cc1.Cl` (centres unmarked) [KHG24647, (2-cycloheptylimino-3,5-dimethyl-1,3-thiazolidine-4-yl)-N-(4-trifluoromethoxyphenyl)-acetamide hydrochloride], the melting point lay within 247 to 271 °C. Also, the inhibition at 10 µM in series [1] (setting [2]) is 62.4%.
Turning to `CC1SC(=NC2CCCCC2)N(C)C1CC(=O)Nc1cc([N+](=O)[O-])ccc1F` (centres unmarked) [KHG24484, (2-cyclohexylimino-3,5-dimethyl-1,3-thiazolidine-4-yl)-N-(2-fluoro-5-nitrophenyl)-acetamide], the melting point was 249 to 251 °C. Further, the inhibition at 10 µM in series [1] (setting [2]) was determined as 32.8%.
The matching figures for `CCN1C(=NC2CCCCC2)SCC1CC(=O)Nc1cc(C(F)(F)F)cc(C(F)(F)F)c1.Cl` (centres unmarked) [KHG24261, [2-cyclohexylimino-3-ethyl-1,3-thiazolidine-4-yl]-N-(3,5-ditrifluoromethylphenyl)-acetamide hydrochloride]: 226.4 °C and 65%.
In the case of `Cl.O=C(CC1CSC(=NC23CC4CC(CC(C4)C2)C3)N1C1CC1)Nc1ccc(Cl)cc1F` (centres unmarked) [KHG24801, [2-(1-adamantylimino)-3-cyclopropyl-1,3-thiazolidine-4-yl]-N-(4-chloro-2-fluorophenyl)-acetamide hydrochloride], the melting point came to 261 °C. For the same compound, in series [1] (setting [2]), the inhibition at 10 µM stood at 63.8%.
On the same counts, the results for `Cc1ccc(NC(=O)CC2CSC(=NC3CCCCC3)N2C)cc1F.Cl` (centres unmarked) [KHG24091, (2-cyclohexylimino-3-methyl-1,3-thiazolidine-4-yl)-N-(3-fluoro-4-methylphenyl)-acetamide hydrochloride] are 210 to 212 °C and 30.3%.
In turn, `CC1SC(=NC2CCCCCC2)N(C)C1CC(=O)Nc1cc(C(F)(F)F)cc(C(F)(F)F)c1.Cl` (centres unmarked) [KHG24646, (2-cycloheptylimino-3,5-dimethyl-1,3-thiazolidine-4-yl)-N-(3,5-ditrifluoromethylphenyl)-acetamide hydrochloride] displayed a melting point of 217 to 219 °C. Also, the inhibition at 10 µM in series [1] (setting [2]) turned out to be 58.1%.
Consider `CCN1C(=NC2CCCCC2)SCC1CC(=O)Nc1ccc(F)cc1.Cl` (centres unmarked) [KHG24403, (2-cyclohexylimino-3-ethyl-1,3-thiazolidine-4-yl)-N-(4-fluorophenyl)-acetamide hydrochloride], for which the melting point was 196.5 °C. Also, the inhibition at 10 µM in series [1] (setting [2]) turned out to be 49.1%.
On the same counts, the results for `CN1C(=NC2CCCCCC2)SCC1C(=O)NCc1cccc(Cl)c1.Cl` (centres unmarked) [KHG24336, (2-cycloheptylimino-3-methyl-1,3-thiazolidine-4-yl)-N-(3-chlorobenzyl)-carboxamide hydrochloride] are 230 to 231 °C and 60.1%.
The matching figures for `CN1C(=NC2CCCC2)SCC1CC(=O)Nc1cc([N+](=O)[O-])ccc1F.Cl` (centres unmarked) [KHG24104, (2-cyclopentylimino-3-methyl-1,3-thiazolidine-4-yl)-N-(2-fluoro-5-nitrophenyl)-acetamide hydrochloride]: 234.5 to 236 °C and 34.3%.
The matching figures for `Cc1cc(Cl)c(NC(=O)CC2CSC(=NC3CCCCC3)N2C)cc1Cl.Cl` (centres unmarked) [KHG24071, (2-cyclohexylimino-3-methyl-1,3-thiazolidine-4-yl)-N-(2,5-dichloro-4-methylphenyl)-acetamide hydrochloride]: 146 °C and 52.1%.
In turn, `CCCCN1C(=NC23CC4CC(CC(C4)C2)C3)SCC1CC(=O)Nc1cc(Cl)ccc1F.Cl` (centres unmarked) [KHG24785, [2-(1-adamantylimino)-3-(n-butyl)-1,3-thiazolidine-4-yl]-N-(5-chloro-2-fluorophenyl)-acetamide hydrochloride] yielded a melting point of 156 °C. In series [1] (setting [2]), the inhibition at 10 µM was determined as 47.1%.
In turn, `CN1C(=NC2CCCCCC2)SCC1C(=O)NCc1cccc(F)c1` (centres unmarked) [KHG24667, (2-cycloheptylimino-3-methyl-1,3-thiazolidine-4-yl)-N-(3-fluorobenzyl)-carboxamide] came in with a melting point of 140.1 °C. The “FDSS (% inhibition)/10uM” value in series [1] (10 μM, HEK293 cells stably expressing α1G T-type calcium channel and Kir2.1, compounds of the examples) is on record as 45.99%.
Compound `CCCCc1ccc(NC(=O)CC2CSC(=NC34CC5CC(CC(C5)C3)C4)N2CC)cc1.Cl` (centres unmarked) [KHG24820, [2-(1-adamantylimino)-3-ethyl-1,3-thiazolidine-4-yl]-N-(4-n-butylphenyl)-acetamide hydrochloride] registered a melting point of 141 °C. Also, the inhibition at 10 µM in series [1] (setting [2]) was found to be 58%.
